Test results taken from US4032645A, “Injectable metronidazole composition” (G. D. Searle & Co., priority 1975, dated 1977).
Where two headings read alike, the source gives them in different places.

What was measured:
[1] = assay type: physicochemical; conditions: for amount dissolved: ethanol
Description: The critical features of the solubility of metronidazole, [1-(2-hydroxyethyl)-2-methyl-5-nitroimidazole] are evident from FIGS. 1 through 6.
It is observed that the optimum solubility in water-ethanol mixtures occur at about 80% ethanol.
It is considered desirable to maintain N,N-dimethylacetamide concentrations in any formulation at a relatively low level. In FIG. 2, it is shown that 20% N,N-dimethylacetamide is not a suitable solvent system in combination with water or ethanol alone. Those satisfied with less desirable formulation could use a solvent system of 20% N,N-dimethylacetamide, 40% water, and 40% ethanol. […] One would also believe this for combinations of 30% N,N-dimethylacetamide and water and ethanol.
It can be observed from FIG. 3 that, unexpectedly, a solvent system of 30% N,N-dimethylacetamide in combination with the indicated proportions of ethanol and water solubilizes more than 500 mg./10 ml. of metronidazole.
Also, unexpectedly, FIGS. 4, 5 and 6 illustrate that the combination of ethanol, water and N,N-dimethylacetamide can be made to dissolve more than 500 mg. of metronidazole by the addition of nicotinamide, propylene glycol or 2,2-dimethyl-1,3-dioxolane-4-methanol. These systems have the advantages of an even lower percentage composition of N,N-dimethylacetamide. Optimum systems and the solubility of metroinidazole therein are illustrated in Table 1.

[2] = water; cited from earlier work
[3] = most stable at a pH range; cited from earlier work

ethanol content at optimum solubility in water-ethanol mixtures [1]: about 80%
solubility [1]: more than 500 mg./10 ml.
amount dissolved ([1]; water and N,N-dimethylacetamide with addition of 2,2-dimethyl-1,3-dioxolane-4-methanol (FIG. 5)): more than 500 mg.
amount dissolved ([1]; water and N,N-dimethylacetamide with addition of nicotinamide (FIG. 6)): more than 500 mg.
amount dissolved ([1]; water and N,N-dimethylacetamide with addition of propylene glycol (FIG. 4)): more than 500 mg.
Compound: Cc1ncc([N+](=O)[O-])n1CCO [metronidazole, 1-(2-hydroxyethyl)-2-methyl-5-nitroimidazole]
aqueous solubility [2]: about 100 mg./10 ml.
pH range of greatest stability [3]: 5.0-7.5
